Oligonucleotides are written 5' to 3', each unit as a sugar letter and its base; * is a phosphorothioate linkage, no mark a phosphodiester; rarer units and linkages stand in square brackets, end groups in braces. Plain capitals give the bases only. d = 2'-deoxy (DNA)

The values that follow come from publication doi:10.1101/2023.07.11.548539v1, “A side-by-side comparison of peptide-delivered antisense antibiotics employing different nucleotide mimics” (bioRxiv, 2023).

In the series the test system is Cy5 5'-labelled acpP target RNA (40 nt). In words: Electrophoretic mobility shift assay (EMSA). It counts as binding, Salmonella enterica. Conditions: unconjugated ASO; ASO:RNA 1.25:1 and 2.5:1, 30 min RT, native 15 % PAGE. The procedure: The electrophoretic mobility shift (EMSA) assay was performed with a Cy5 5’-labelled RNA (purchased from Eurofins) encompassing the sequence spanning nucleotides −20 to +20 of acpP relative to the translation start codon. For annealing, TM buffer (10 mM Tris-HCl, 50 mM MgCl2) was used. First, 20 µM RNA was denatured by incubation at 95 °C for 5 min followed by placement on ice. Then 1 µL of RNA was added to PCR tubes containing 8 µL of water. To this 1 µL of ASOs at the indicated concentrations (25 µM or 50 µM) were added to adjust ASO:RNA ratios of 1.25:1 and 2.5:1. As untreated negative control water was added instead of ASO, while a scrambled PNA sequence served as sequence-unspecific negative control (Figure 2 and Figure S2). These mixtures were incubated for 30 min at room temperature (RT), followed by the addition of 10 µL 2x Gel Loading (GL) buffer for subsequent loading on native 15 % PAA RNA gel without urea (20 µL/sample; 6 µL of a 50 bp DNA marker + 14 µL 1x GL). The gel was run at 100-120 V for 2-3 h, concomitantly stained with ethidium bromide for 15 min and imaged on Geldoc (Isogen Life Science B.V., De Meern, the Netherlands).
On the technique in general: A gel shift assay detects complexes by their altered migration in electrophoresis.

As for “DNA-PTO: 10mer phosphorothioate-modified DNA antisense oligomer, sequence CTCATACTCT, targeting acpP (antisense dC*dT*dC*dA*dT*dA*dC*dT*dC*dT)”, the “Hybridization to target RNA (band shift)” value is listed as “did not interact with the target mRNA”.
